Reference: ChEMBL document CHEMBL6096675 (J Med Chem, 2025)

Experiments:
[1] = target: von Hippel-Lindau disease tumor suppressor/SWI/SNF-related matrix-associated actin-dependent regulator of chromatin subfamily A member 2 (Homo sapiens, UniProt P51531+P40337); test: PROTAC activity at SMARCA2/VHL1 in human HeLa cells assessed as protein degradation by Nano-Glo HiBiT lytic detection assay; type: cell-based
[2] = PROTAC activity at SMARCA2/E3 ubiquitin ligase (unknown origin) assessed as protein degradation; parameters: species or system Homo sapiens
[3] = species on record: Homo sapiens; test: Selectivity ratio, ratio of DC50 for PROTAC activity at SMARCA2/E3 ubiquitin ligase (unknown origin) to DC50 for PROTAC activity at SMARCA4/E3 ubiquitin ligase (unknown origin
[4] = species on record: Homo sapiens; test: PROTAC activity at SMARCA4/E3 ubiquitin ligase (unknown origin) assessed as maximal protein degradation
[5] = species on record: Homo sapiens; test: PROTAC activity at SMARCA2/E3 ubiquitin ligase (unknown origin) assessed as maximal protein degradation
[6] = PROTAC activity at SMARCA4/E3 ubiquitin ligase (unknown origin) assessed as protein degradation; parameters: species or system Homo sapiens
[7] = target: von Hippel-Lindau disease tumor suppressor/SWI/SNF-related matrix-associated actin-dependent regulator of chromatin subfamily A member 4 (Homo sapiens, UniProt P51532+P40337); test: PROTAC activity at SMARCA4/VHL1 in human HeLa cells assessed as protein degradation by Nano-Glo HiBiT lytic detection assay; type: cell-based
Sequence of von Hippel-Lindau disease tumor suppressor/SWI/SNF-related matrix-associated actin-dependent regulator of chromatin subfamily A member 4 (P51532 whole entry): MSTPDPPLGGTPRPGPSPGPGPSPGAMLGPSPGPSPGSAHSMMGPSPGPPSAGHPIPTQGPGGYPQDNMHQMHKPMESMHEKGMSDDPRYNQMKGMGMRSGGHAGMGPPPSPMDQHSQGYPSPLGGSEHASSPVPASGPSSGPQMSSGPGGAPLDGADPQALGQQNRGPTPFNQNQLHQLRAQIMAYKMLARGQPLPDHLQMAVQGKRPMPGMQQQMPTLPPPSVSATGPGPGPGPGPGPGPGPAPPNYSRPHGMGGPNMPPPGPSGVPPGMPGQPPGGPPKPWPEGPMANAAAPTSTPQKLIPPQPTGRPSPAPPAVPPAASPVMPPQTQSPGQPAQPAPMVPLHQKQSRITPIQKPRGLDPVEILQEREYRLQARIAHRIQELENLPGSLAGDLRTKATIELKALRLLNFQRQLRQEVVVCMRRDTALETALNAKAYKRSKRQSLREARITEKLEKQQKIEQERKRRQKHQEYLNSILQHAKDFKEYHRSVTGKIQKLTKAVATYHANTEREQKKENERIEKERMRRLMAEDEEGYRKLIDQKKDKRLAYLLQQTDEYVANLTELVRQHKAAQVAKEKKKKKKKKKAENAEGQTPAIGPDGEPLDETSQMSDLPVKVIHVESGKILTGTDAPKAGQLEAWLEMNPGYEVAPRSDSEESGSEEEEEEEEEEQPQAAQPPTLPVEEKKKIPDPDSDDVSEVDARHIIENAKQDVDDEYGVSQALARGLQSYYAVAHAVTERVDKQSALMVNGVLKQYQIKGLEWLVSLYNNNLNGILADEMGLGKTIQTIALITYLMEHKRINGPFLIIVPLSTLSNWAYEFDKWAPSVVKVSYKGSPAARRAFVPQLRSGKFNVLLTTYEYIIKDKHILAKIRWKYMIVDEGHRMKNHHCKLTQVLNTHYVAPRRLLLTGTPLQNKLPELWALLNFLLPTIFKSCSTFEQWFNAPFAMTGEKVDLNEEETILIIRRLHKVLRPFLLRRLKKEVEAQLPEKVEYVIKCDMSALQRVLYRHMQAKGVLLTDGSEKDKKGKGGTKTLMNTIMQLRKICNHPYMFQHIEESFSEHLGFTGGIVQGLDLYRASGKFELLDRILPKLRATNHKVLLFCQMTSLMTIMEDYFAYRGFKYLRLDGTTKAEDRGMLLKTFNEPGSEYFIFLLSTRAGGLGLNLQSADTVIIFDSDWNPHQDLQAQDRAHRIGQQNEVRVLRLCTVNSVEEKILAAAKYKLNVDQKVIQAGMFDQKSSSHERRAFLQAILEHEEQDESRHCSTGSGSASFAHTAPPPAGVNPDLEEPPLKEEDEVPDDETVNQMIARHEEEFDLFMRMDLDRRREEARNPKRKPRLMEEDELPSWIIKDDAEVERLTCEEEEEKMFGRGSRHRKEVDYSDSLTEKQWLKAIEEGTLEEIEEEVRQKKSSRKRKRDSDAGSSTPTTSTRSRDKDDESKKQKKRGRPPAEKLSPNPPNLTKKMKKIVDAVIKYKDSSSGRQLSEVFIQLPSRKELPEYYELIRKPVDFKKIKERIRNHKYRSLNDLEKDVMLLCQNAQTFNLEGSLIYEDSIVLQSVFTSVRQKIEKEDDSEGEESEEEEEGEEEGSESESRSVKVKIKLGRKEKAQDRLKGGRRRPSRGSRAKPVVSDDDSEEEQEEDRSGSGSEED
Sequence of von Hippel-Lindau disease tumor suppressor/SWI/SNF-related matrix-associated actin-dependent regulator of chromatin subfamily A member 4 (P40337 whole entry): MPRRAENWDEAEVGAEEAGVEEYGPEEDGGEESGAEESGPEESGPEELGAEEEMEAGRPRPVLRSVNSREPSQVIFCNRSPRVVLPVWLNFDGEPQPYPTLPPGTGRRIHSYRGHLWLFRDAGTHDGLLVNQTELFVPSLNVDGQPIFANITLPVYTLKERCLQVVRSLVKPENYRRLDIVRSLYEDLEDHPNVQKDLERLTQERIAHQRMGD

[8] = Plasma concentration in SCID mouse xenografted with human NCI-H838 cells at 10 mg/kg, iv measured after 24 hrs by LC-MS/MS analysis; type: ADME, organism-based
[9] = Plasma concentration in SCID mouse xenografted with human NCI-H838 cells at 10 mg/kg, iv measured after 96 hrs by LC-MS/MS analysis; type: ADME, organism-based
[10] = Drug uptake in tumor of human NCI-H838 cells xenografted SCID mouse model at 10 mg/kg, iv measured after 24 hrs by LC-MS/MS analysis; type: ADME, organism-based, Neoplasm; conditions: read-out: Drug uptake
[11] = Drug uptake in tumor of human NCI-H838 cells xenografted SCID mouse model at 10 mg/kg, iv measured after 96 hrs by LC-MS/MS analysis; type: ADME, organism-based, Neoplasm; conditions: read-out: Drug uptake
[12] = target: SWI/SNF-related matrix-associated actin-dependent regulator of chromatin subfamily A member 4 (Homo sapiens, UniProt P51532); test: Inhibition of SMARCA4 (unknown origin)
Sequence of SWI/SNF-related matrix-associated actin-dependent regulator of chromatin subfamily A member 4 (P51532 whole entry): as the sequence (P51532 whole entry) above

[13] = target: SWI/SNF-related matrix-associated actin-dependent regulator of chromatin subfamily A member 2 (Homo sapiens, UniProt P51531); test: Inhibition of SMARCA2 (unknown origin)
Sequence of SWI/SNF-related matrix-associated actin-dependent regulator of chromatin subfamily A member 2 (P51531 whole entry): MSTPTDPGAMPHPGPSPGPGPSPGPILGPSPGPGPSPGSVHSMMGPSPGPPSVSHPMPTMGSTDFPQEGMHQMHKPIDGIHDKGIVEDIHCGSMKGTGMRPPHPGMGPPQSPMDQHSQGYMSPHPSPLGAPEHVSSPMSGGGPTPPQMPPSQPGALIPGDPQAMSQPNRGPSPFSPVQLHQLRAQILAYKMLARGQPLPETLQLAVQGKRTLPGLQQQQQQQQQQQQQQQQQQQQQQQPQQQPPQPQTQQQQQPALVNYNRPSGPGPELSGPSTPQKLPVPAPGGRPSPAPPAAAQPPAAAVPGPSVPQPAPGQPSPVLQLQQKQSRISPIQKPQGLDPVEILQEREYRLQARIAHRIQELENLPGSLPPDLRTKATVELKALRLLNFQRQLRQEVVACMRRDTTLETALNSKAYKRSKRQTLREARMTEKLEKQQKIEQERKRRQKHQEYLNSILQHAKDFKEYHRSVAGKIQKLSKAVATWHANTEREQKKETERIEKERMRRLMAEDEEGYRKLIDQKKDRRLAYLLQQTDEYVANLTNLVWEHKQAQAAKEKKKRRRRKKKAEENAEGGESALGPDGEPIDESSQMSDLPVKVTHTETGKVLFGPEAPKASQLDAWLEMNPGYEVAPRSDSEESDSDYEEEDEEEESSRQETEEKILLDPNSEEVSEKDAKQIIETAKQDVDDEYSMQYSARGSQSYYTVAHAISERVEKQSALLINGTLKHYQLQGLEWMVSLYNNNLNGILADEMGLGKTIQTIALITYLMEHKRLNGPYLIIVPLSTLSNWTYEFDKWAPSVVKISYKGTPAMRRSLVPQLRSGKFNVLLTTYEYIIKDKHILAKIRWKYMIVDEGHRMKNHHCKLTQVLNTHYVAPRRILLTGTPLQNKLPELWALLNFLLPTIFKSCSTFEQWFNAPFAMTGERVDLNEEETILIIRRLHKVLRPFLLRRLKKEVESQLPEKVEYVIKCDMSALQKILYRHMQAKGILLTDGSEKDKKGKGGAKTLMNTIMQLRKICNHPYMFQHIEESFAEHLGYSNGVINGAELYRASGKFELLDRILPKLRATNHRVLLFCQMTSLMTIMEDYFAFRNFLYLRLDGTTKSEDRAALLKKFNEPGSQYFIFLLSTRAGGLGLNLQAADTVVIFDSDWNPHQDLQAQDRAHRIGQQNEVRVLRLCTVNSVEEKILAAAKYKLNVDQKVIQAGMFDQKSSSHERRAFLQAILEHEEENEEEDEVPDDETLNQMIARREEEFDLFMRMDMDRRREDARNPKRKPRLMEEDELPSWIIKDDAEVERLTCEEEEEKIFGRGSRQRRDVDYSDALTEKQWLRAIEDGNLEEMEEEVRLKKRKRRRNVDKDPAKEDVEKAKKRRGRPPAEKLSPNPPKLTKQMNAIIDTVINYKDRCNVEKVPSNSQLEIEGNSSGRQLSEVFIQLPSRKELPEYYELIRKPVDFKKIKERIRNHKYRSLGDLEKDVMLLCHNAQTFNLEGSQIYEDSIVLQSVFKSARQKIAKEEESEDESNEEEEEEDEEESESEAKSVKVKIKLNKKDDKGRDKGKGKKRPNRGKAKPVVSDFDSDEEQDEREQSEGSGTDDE

Sequence of von Hippel-Lindau disease tumor suppressor/SWI/SNF-related matrix-associated actin-dependent regulator of chromatin subfamily A member 2 (P51531 whole entry): as above
Sequence of von Hippel-Lindau disease tumor suppressor/SWI/SNF-related matrix-associated actin-dependent regulator of chromatin subfamily A member 2 (P40337 whole entry): as the sequence (P40337 whole entry) above

SMILES | DC50 [1] [nM] | DC50 [7] [nM] | other results
Cc1ncsc1-c1ccc([C@H](C)NC(=O)[C@@H]2C[C@@H](O)CN2C(=O)[C@@H](NC(=O)[C@H]2CC[C@H](CN3CCC(c4ccc5c(c4)C4(CCCCC4)c4nc(=O)c6c(Cl)cccc6n4-5)CC3)CC2)C(C)(C)C)cc1 | 6.3 |  | 
Cc1ncsc1-c1ccc([C@H](CC[C@H](C)CCN2CCC(c3ccc4c(c3)n(C3CCCC3)c3nc(=O)c5c(Br)cccc5n43)CC2)NC(=O)[C@@H]2C[C@@H](O)CN2C(=O)[C@@H](NC(=O)C2(F)CC2)C(C)(C)C)cc1 |  |  | DC50 [2]: 1 nM; Ratio [3]: 32; Emax [4]: 67%; Emax [5]: 81%; DC50 [6]: 32 nM
Cc1ncsc1-c1ccc([C@H](CN2CCOCC2)NC(=O)[C@@H]2C[C@@H](O)CN2C(=O)[C@@H](n2cc([C@H]3CC[C@H](CN4CCC(c5ccc6c(c5)-n5c(nc(=O)c7c(Cl)cccc75)C65CCCCC5)CC4)CC3)nn2)C(C)(C)O)cc1 | 1 | > 1000 | 
Cc1ncsc1-c1ccc([C@H](CN2CC(C)(O)C2)NC(=O)[C@@H]2C[C@@H](O)CN2C(=O)[C@@H](n2cc([C@H]3CC[C@H](CN4CCC(c5ccc6c(c5)-n5c(nc(=O)c7c(Cl)cccc75)C65CCCCC5)CC4)CC3)nn2)C(C)(C)C)cc1 | 2 | > 1000 | 
Cc1ncsc1-c1ccc([C@H](CN2CCC(F)(F)CC2)NC(=O)[C@@H]2C[C@@H](O)CN2C(=O)[C@@H](n2cc([C@H]3CC[C@H](CN4CCC(c5ccc6c(c5)-n5c(nc(=O)c7c(Cl)cccc75)C65CCCCC5)CC4)CC3)nn2)C(C)(C)C)cc1 | 2 | > 1000 | 
Cc1ncsc1-c1ccc([C@H](CN2CCN(C)CC2)NC(=O)[C@@H]2C[C@@H](O)CN2C(=O)[C@@H](n2cc([C@H]3CC[C@H](CN4CCC(c5ccc6c(c5)-n5c(nc(=O)c7c(Cl)cccc75)C65CCCCC5)CC4)CC3)nn2)C(C)(C)C)cc1 | 1 | 62 | 
Cc1nc(C)c(-c2ccc([C@H](CN3CCOCC3)NC(=O)[C@@H]3C[C@@H](O)CN3C(=O)[C@@H](n3cc([C@H]4CC[C@H](CN5CCC(c6ccc7c(c6)-n6c(nc(=O)c8c(Cl)cccc86)C76CCCCC6)CC5)CC4)nn3)C(C)(C)C)cc2)s1 | 1 | > 1000 | 
Cc1ccccc1-c1ccc([C@H](CN2CCOCC2)NC(=O)[C@@H]2C[C@@H](O)CN2C(=O)[C@@H](n2cc([C@H]3CC[C@H](CN4CCC(c5ccc6c(c5)-n5c(nc(=O)c7c(Cl)cccc75)C65CCCCC5)CC4)CC3)nn2)C(C)(C)C)cc1 | 8 | 789 | 
Cc1ncsc1-c1ccc([C@H](C)NC(=O)[C@@H]2C[C@@H](O)CN2C(=O)[C@@H](n2cc([C@H]3CC[C@H](CN4CCC(c5ccc6c(c5)-n5c(nc(=O)c7c(Br)cccc75)C65CCCCC5)CC4)CC3)nn2)C(C)(C)C)cc1 | 0.24 | 22 | 
Cc1ncsc1-c1ccc([C@H](CN2CC(C)(F)C2)NC(=O)[C@@H]2C[C@@H](O)CN2C(=O)[C@@H](n2cc([C@H]3CC[C@H](CN4CCC(c5ccc6c(c5)-n5c(nc(=O)c7c(Cl)cccc75)C65CCCCC5)CC4)CC3)nn2)C(C)(C)C)cc1 | 1 | > 1000 | 
COCCOCCOC[C@H](NC(=O)[C@@H]1C[C@@H](O)CN1C(=O)[C@@H](n1cc([C@H]2CC[C@H](CN3CCC(c4ccc5c(c4)-n4c(nc(=O)c6c(Cl)cccc64)C54CCCCC4)CC3)CC2)nn1)C(C)(C)C)c1ccc(-c2scnc2C)cc1 | 0.4 | > 1000 | concentration at 24 h [8]: 5.5 ng/mL; concentration at 96 h [9]: 4.2 ng/mL; concentration at 24 h [10]: 113 ng/mL; concentration at 96 h [11]: 53 ng/mL
CC(C)(C)[C@@H](C(=O)N1C[C@H](O)C[C@H]1C(=O)N[C@@H](CN1CCOCC1)c1ccc(-c2ccccc2)cc1)n1cc([C@H]2CC[C@H](CN3CCC(c4ccc5c(c4)-n4c(nc(=O)c6c(Cl)cccc64)C54CCCCC4)CC3)CC2)nn1 | 5 | 430 | 
Cc1ncsc1-c1ccc([C@H](CN2CCS(=O)(=O)CC2)NC(=O)[C@@H]2C[C@@H](O)CN2C(=O)[C@@H](n2cc([C@H]3CC[C@H](CN4CCC(c5ccc6c(c5)-n5c(nc(=O)c7c(Cl)cccc75)C65CCCCC5)CC4)CC3)nn2)C(C)(C)C)cc1 | 5 | > 1000 | 
Cc1ncsc1-c1ccc([C@H](C)NC(=O)[C@@H]2C[C@@H](O)CN2C(=O)[C@@H](n2cc([C@H]3CC[C@H](CN4CCC(c5ccc6c(c5)C5(CCCCC5)c5nc(=O)c7c(Br)cccc7n5-6)CC4)CC3)nn2)C(C)(C)C)cc1 | 0.15 | 2 | 
CC(C)(C)[C@@H](C(=O)N1C[C@H](O)C[C@H]1C(=O)N[C@@H](CN1CCOCC1)c1ccc(-c2ccccc2F)cc1)n1cc([C@H]2CC[C@H](CN3CCC(c4ccc5c(c4)-n4c(nc(=O)c6c(Cl)cccc64)C54CCCCC4)CC3)CC2)nn1 | 1 | 222 | 
Cc1nc(C)c(-c2ccc([C@H](CN3CCOCC3)NC(=O)[C@@H]3C[C@@H](O)CN3C(=O)[C@@H](n3cc([C@H]4CC[C@H](CN5CCC(c6ccc7c(c6)-n6c(nc(=O)c8c(Cl)cccc86)C76CCCCC6)CC5)CC4)nn3)C(C)(C)C)cc2)o1 | 1 | 575 | 
Cc1ncsc1-c1ccc([C@H](C)NC(=O)[C@@H]2C[C@@H](O)CN2C(=O)[C@@H](NC(=O)[C@H]2CC[C@H](CN3CCC(c4ccc5c(c4)-n4c(nc(=O)c6c(Cl)cccc64)C54CCCCC4)CC3)CC2)C(C)(C)C)cc1 | 8 |  | 
Cc1ncsc1-c1ccc(CNC(=O)[C@@H]2C[C@@H](O)CN2C(=O)[C@@H](NC(=O)C2(F)CC2)C(C)(C)C)c(OCCOc2ccc(CN3CCN(c4cc(-c5ccccc5O)nnc4N)CC3)cc2)c1 |  |  | DC50 [2]: 6 nM; Ratio [3]: 2; Emax [4]: > 95%; Emax [5]: > 95%; DC50 [6]: 11 nM
Cc1ncsc1-c1ccc([C@H](C)NC(=O)[C@@H]2C[C@@H](O)CN2C(=O)[C@@H](n2cc([C@H]3CC[C@H](CN4CCC(c5ccc6c(c5)-n5c(nc(=O)c7c(Cl)cccc75)C65CCCCC5)CC4)CC3)nn2)C(C)(C)C)cc1 | 0.3 | 115 | 
COCCOCCOCCOCCOC[C@H](NC(=O)[C@@H]1C[C@@H](O)CN1C(=O)[C@@H](n1cc([C@H]2CC[C@H](CN3CCC(c4ccc5c(c4)-n4c(nc(=O)c6c(Cl)cccc64)C54CCCCC4)CC3)CC2)nn1)C(C)(C)C)c1ccc(-c2scnc2C)cc1 | 3 | > 1000 | 
O=c1nc2n(c3cccc(Cl)c13)-c1cc(C3CCNCC3)ccc1C21CCCCC1 |  |  | IC50 [12]: 83 nM; IC50 [13]: 66 nM
Cc1ncoc1-c1ccc([C@H](CN2CCOCC2)NC(=O)[C@@H]2C[C@@H](O)CN2C(=O)[C@@H](n2cc([C@H]3CC[C@H](CN4CCC(c5ccc6c(c5)-n5c(nc(=O)c7c(Cl)cccc75)C65CCCCC5)CC4)CC3)nn2)C(C)(C)C)cc1 | 1 | > 1000 | 
COCCOC[C@H](NC(=O)[C@@H]1C[C@@H](O)CN1C(=O)[C@@H](n1cc([C@H]2CC[C@H](CN3CCC(c4ccc5c(c4)-n4c(nc(=O)c6c(Cl)cccc64)C54CCCCC4)CC3)CC2)nn1)C(C)(C)C)c1ccc(-c2scnc2C)cc1 | 0.4 | > 1000 | concentration at 24 h [8]: 13 ng/mL; concentration at 96 h [9]: 8.3 ng/mL; concentration at 24 h [10]: 255 ng/mL; concentration at 96 h [11]: 79 ng/mL
Cc1ncsc1-c1ccc([C@H](C)NC(=O)[C@@H]2C[C@@H](O)CN2C(=O)[C@@H](n2cc([C@H]3CC[C@H](CN4CCC(c5ccc6c(c5)C5(CCCCC5)c5nc(=O)c7c(Cl)cccc7n5-6)CC4)CC3)nn2)C(C)(C)C)cc1 | 0.29 | 3 | 
COCCOCCOCCOC[C@H](NC(=O)[C@@H]1C[C@@H](O)CN1C(=O)[C@@H](n1cc([C@H]2CC[C@H](CN3CCC(c4ccc5c(c4)-n4c(nc(=O)c6c(Cl)cccc64)C54CCCCC4)CC3)CC2)nn1)C(C)(C)C)c1ccc(-c2scnc2C)cc1 | 2 | > 1000 | 
O=c1nc2n(c3cccc(Cl)c13)-c1ccc(C3CCNCC3)cc1C21CCCCC1 |  |  | IC50 [12]: 58 nM; IC50 [13]: 43 nM
Cc1ncsc1-c1ccc([C@H](CN2CCC(C(=O)O)CC2)NC(=O)[C@@H]2C[C@@H](O)CN2C(=O)[C@@H](n2cc([C@H]3CC[C@H](CN4CCC(c5ccc6c(c5)-n5c(nc(=O)c7c(Cl)cccc75)C65CCCCC5)CC4)CC3)nn2)C(C)(C)C)cc1 | 111 | > 1000 | 
CC(C)(C)[C@@H](C(=O)N1C[C@H](O)C[C@H]1C(=O)N[C@@H](CN1CCOCC1)c1ccc(-c2ocnc2C(F)(F)F)cc1)n1cc([C@H]2CC[C@H](CN3CCC(c4ccc5c(c4)-n4c(nc(=O)c6c(Cl)cccc64)C54CCCCC4)CC3)CC2)nn1 | 16 | > 1000 | 
Cc1ncsc1-c1ccc([C@H](C)NC(=O)[C@H]2C[C@@H](O)CN2C(=O)[C@@H](c2cc(N3CCC(CN4CCC(O[C@H]5C[C@H](Oc6cc(N7C8CCC7CN(c7cc(-c9ccccc9O)nnc7N)C8)ccn6)C5)CC4)CC3)no2)C(C)C)cc1 |  |  | DC50 [2]: 0.04 nM; DC50 [6]: 1.1 nM
Cc1ncsc1-c1ccc([C@H](CN2CC(C(=O)O)C2)NC(=O)[C@@H]2C[C@@H](O)CN2C(=O)[C@@H](n2cc([C@H]3CC[C@H](CN4CCC(c5ccc6c(c5)-n5c(nc(=O)c7c(Cl)cccc75)C65CCCCC5)CC4)CC3)nn2)C(C)(C)C)cc1 | 228 | > 1000 | 
